{"source": "patent US10674699B2", "about": "“Endophyte enhanced seedlings with increased pest tolerance” (priority 2006, dated 2020)", "key": {"[1]": {"tested_on": "Choristoneura fumiferana (spruce budworm) larvae", "conditions": "Calhoun et al. 1992; cited from earlier work"}, "mice": {"tested_on": "mice", "conditions": "ip in mice; Ueno et al. 1971; cited from earlier work"}, "[2]": {"tested_on": "HepG2 cells (human hepatoma cells)", "conditions": "Watts et al. 2003; cited from earlier work"}, "[3]": {"test": "Rugulosin analysis of needles by HPLC (toxin in planta)", "parameters": "species or system Picea glauca", "conditions": "field trees analyzed in 2005, limit of detection 150 ng/g", "experimental": "Rugulosin of purity>95% was used for standards. The presence of rugulosin was then to be determined in a sub-sample of 113 randomly-selected trees of the 330 trees determined to be endophyte positive by antibody. A 100 mg sample of freeze-dried needles was ground to a fine power as describe above and extracted with 10 mL of ice cold petroleum ether by stirring for 45 min under conditions of low light. The flask was kept on ice during the extracting and was covered with aluminium foil to prevent degradation by light. The suspension was filtered by suction and discarded. The needles were returned to the flask and extracted with 10 mL of chloroform for 45 min as above for petroleum ether. The new suspension was then filtered by suction and retained while the needles were discarded. The chloroform extract was washed with 10 mL of 5% NaHCO3 in a separatory funnel. […]\nThe dried extracts were re-dissolved in 50 μL of acetonitrile, 10 μL was removed and injected into an 1100 series Agilent Technologies HPLC-DAD, using a Synergi Max RP 80A, 250×4.6 column (Phenomonex) and a gradient method adapted from Frisvad (1987). […] Samples were analysed at 389 nm, the maximum UVNIS absorption for rugulosin and peak identity was confirmed by full spectrum data from the diode array detector. The limit of quantification was 150 ng/g freeze dried powdered material; recoveries from spiked needles averaged 75%. […]"}, "[4]": {"tested_on": "Zeiraphera canadensis larvae (spruce budmoth)", "test": "Dietary rugulosin in artificial diet, wild collected spruce budmoth larvae", "type": "in vivo", "experimental": "Zeiraphera canadensis larvae (spruce budmoth) were collected from the wild near Sussex in mid June. They were immediately put in test vials and tested at rugulosin concentrations of 10, 50, 100 and 150 μM (75 per concentration). After seven days, surviving larvae were frozen and measured."}, "[5]": {"tested_on": "Choristoneura fumiferana (spruce budworm) larvae", "test": "Dietary rugulosin in artificial diet, spruce budworm larvae", "type": "in vivo", "experimental": "Spruce budworm (Choristoneura fumiferana) larvae were obtained from the colony at the Natural Resources Canada, Canadian Forest Service Laboratory in Sault Ste. Marie, Ontario and stored at 5° C. For each test, second instar larvae are put in creamer cups containing approximately 15 ml of artificial diet which had been prepared the day before and allowed to set overnight. The diet used is based on McMorran (1965) as modified by Forestry Canada. The cups are placed in a growth chamber at 22° C., 55% RH with 16 h light/day until they reach 4-5 instar as estimated by visually assessment. Batches of diet are prepared and suitable portions were measured out for addition of extracts, fractions or pure compounds. After 4 days on the test diet, the budworms were frozen, weighed and measured. The data was analyzed for dry weight reductions in comparison to controls and for changes in the distribution of insects at different instars in comparison to controls.\nC. fumiferana larvae (spruce budworm) were obtained from Insect Production Services, Forestry Canada (Sault Ste. Marie, ON) and stored at 5° C. For each test, a sufficient number of larvae were hatched and put in creamer cups containing 15 ml of artificial diet. The diet was prepared in-house (McMorran 1965). The cups were placed in a growth chamber at 22° C., 55% RH with 16 h light/day until the larvae reached second/third instar (McGugan 1954). A suitable amount of diet was prepared, and 4 aliquots dispensed into a flask. Dilutions of pure rugulosin were made in 95% ethanol to provide the required concentrations (540 μl ethanol solution plus the vehicle control) and added to the flasks respectively. The diet was mixed with a stir bar and by the pipette used to dispense the media. Two drops of hot liquid diet were added with a 10 ml sterile pipette (0.1 g dry weight) to 4 ml tapered plastic sample cups (Fisher Scientific #025444, #25444A). […] Head capsule widths were determined using a stereo microscope at 40× with ocular and stage micrometers. […]"}}}
{"smiles": "Cc1cc(O)c2c(c1)C(=O)[C@]13C(=C2O)C(=O)[C@@H]2[C@H](O)[C@H]1[C@@H]1[C@@H](O)[C@H]3C(=O)C3=C(O)c4c(O)cc(C)cc4C(=O)[C@]312", "note": "[rugulosin]", "values": [{"measurement": "toxicity to C. fumiferana larvae in an artificial diet", "setting": "[1]", "value": "toxic"}, {"measurement": "LD50", "setting": "mice", "value": 55, "unit": "mg kg^−1 BW"}, {"measurement": "cytotoxicity", "setting": "[2]", "value": "not cytotoxic"}, {"measurement": "individual branch samples positive for rugulosin or its degradation product", "setting": "[3]", "value": 89, "unit": "%"}, {"measurement": "larval weights, controls vs treatment groups by ANOVA (LSD, Tukey)", "setting": "[4]; 10, 50, 100 and 150 μM rugulosin, seven days", "value": "not significantly different"}, {"measurement": "effect of rugulosin on wild collected larvae relative to the other insect species", "setting": "[4]; diet", "value": "same order of magnitude"}, {"measurement": "dietary concentration reducing body weight and/or affecting instar development", "setting": "[4]; in vitro, diet", "value": "~50", "unit": "µM"}, {"measurement": "dietary rugulosin concentration with significantly reduced head capsule", "setting": "[5]; artificial diet, 4 d", "value": 100, "unit": "µM"}, {"measurement": "dietary toxic effect level for rugulosin", "setting": "[5]; dietary LOEL adjusted for mean ratio dry weight:wet weight of needles", "value": 0.5, "unit": "µg/g"}, {"measurement": "rugulosin concentration in vitro that affected budworm growth and development", "setting": "[5]; in vitro (diet), Example 1", "value": 1, "unit": "µg/g"}]}
